Converted amounts (≈) assume the structure as drawn. The source made the active and inactive calls. The rule behind the calls is not given here.
Experiments:
[1] = test system: L1210; assay: Antileukemic activity against mouse L1210 cells allografted in BDF1 mouse assessed as mean survival time at 10 mg/kg, ip administered 24 hrs (Rvb 4.6 +/- 0.16 days); format: functional; details: route intraperitoneal
[2] = test system: L1210; assay: Antileukemic activity against mouse L1210 cells allografted in ip dosed BDF1 mouse assessed as maximum tolerated dose for survival over 30 days administered 24 hrs; format: functional
[3] = test system: Mus musculus; assay: Acute toxicity in po dosed BDF1 mouse; format: organism-based; details: in vivo
[4] = test system: L1210; assay: Cytotoxicity against mouse L1210 cells assessed as growth inhibition after 72 hrs; format: functional; details: L1210, 72 h, read-out: ED50 (the source's name)
[5] = test system: L1210; assay: Antileukemic activity against mouse L1210 cells allografted in BDF1 mouse assessed as increase in life span at 2 mg/kg, ip administered 24 hrs relative to control; format: functional; details: route intraperitoneal
[6] = test system: L1210; assay: Antileukemic activity against mouse L1210 cells allografted in BDF1 mouse assessed as increase in life span at 100 mg/kg, ip administered 24 hrs relative to control; format: functional; details: route intraperitoneal
[7] = test system: L1210; assay: Antileukemic activity against mouse L1210 cells allografted in ip dosed BDF1 mouse assessed as maximum tolerated dose for survival over 60 days administered 24 hrs; format: functional
[8] = test system: L1210; assay: Ratio of Cmax to Cmin for antileukemic activity against mouse L1210 cells allografted in iv dosed BDF1 mouse assessed as survival over 60 days; format: functional
[9] = test system: L1210; assay: Antileukemic activity against mouse L1210 cells allografted in BDF1 mouse assessed as mean survival time at 100 mg/kg, ip administered 24 hrs (Rvb 4.6 +/- 0.16 days); format: functional; details: route intraperitoneal
[10] = test system: L1210; assay: Ratio of Cmax to Cmin for antileukemic activity against mouse L1210 cells allografted in ip dosed BDF1 mouse assessed as survival over 60 days; format: functional
[11] = test system: L1210; assay: Ratio of ILSmax to ILS30 for antileukemic activity against mouse L1210 cells allografted in ip dosed BDF1 mouse; format: functional
[12] = test system: L1210; assay: Antileukemic activity against mouse L1210 cells allografted in BDF1 mouse assessed as mean survival time at 50 mg/kg, ip administered 24 hrs (Rvb 4.6 +/- 0.16 days); format: functional; details: route intraperitoneal
[13] = test system: L1210; assay: Antileukemic activity against mouse L1210 cells allografted in iv dosed BDF1 mouse assessed as maximum tolerated dose for survival over 60 days administered 24 hrs; format: functional
[14] = test system: L1210; assay: Antileukemic activity against mouse L1210 cells allografted in BDF1 mouse assessed as increase in life span at 10 mg/kg, ip administered 24 hrs relative to control; format: functional; details: route intraperitoneal
[15] = test system: L1210; assay: Ratio of Cmax to Cmin for antileukemic activity against mouse L1210 cells allografted in po dosed BDF1 mouse assessed as survival over 60 days; format: functional
[16] = test system: L1210; assay: Antileukemic activity against mouse L1210 cells allografted in BDF1 mouse assessed as mean survival time at 2 mg/kg, ip administered 24 hrs (Rvb 4.6 +/- 0.16 days); format: functional; details: route intraperitoneal
[17] = test system: Rattus norvegicus; assay: Acute toxicity in iv dosed Wistar rat; format: organism-based; details: in vivo
[18] = test system: L1210; assay: Antileukemic activity against mouse L1210 cells allografted in BDF1 mouse assessed as increase in survivor over 30 days at 100 mg/kg, ip administered 24 hrs; format: functional, organism-based; set-up: dose 100 mg/kg
[19] = test system: L1210; assay: Antileukemic activity against mouse L1210 cells allografted in ip dosed BDF1 mouse administered 24 hrs; format: functional
[20] = test system: Rattus norvegicus; assay: Acute toxicity in ip dosed Wistar rat; format: organism-based; details: in vivo
[21] = test system: Rattus norvegicus; assay: Acute toxicity in po dosed Wistar rat; format: organism-based; details: in vivo
[22] = test system: L1210; assay: Antileukemic activity against mouse L1210 cells allografted in iv dosed BDF1 mouse assessed as survival over 60 days administered 24 hrs; format: functional; details: read-out: MED
[23] = test system: L1210; assay: Antileukemic activity against mouse L1210 cells allografted in ip dosed BDF1 mouse assessed as survival over 60 days administered 24 hrs; format: functional; details: read-out: MED
[24] = test system: L1210; assay: Antileukemic activity against mouse L1210 cells allografted in po dosed BDF1 mouse assessed as survival over 60 days administered 24 hrs; format: functional; details: read-out: MED
[25] = test system: Mus musculus; assay: Acute toxicity in ip dosed BDF1 mouse; format: organism-based; details: in vivo
[26] = test system: Mus musculus; assay: Acute toxicity in iv dosed BDF1 mouse; format: organism-based; details: in vivo
[27] = test system: L1210; assay: Antileukemic activity against mouse L1210 cells allografted in po dosed BDF1 mouse assessed as maximum tolerated dose for survival over 60 days administered 24 hrs; format: functional
[28] = test system: L1210; assay: Antileukemic activity against mouse L1210 cells allografted in BDF1 mouse assessed as increase in life span at 50 mg/kg, ip administered 24 hrs relative to control; format: functional; details: route intraperitoneal
[29] = test system: L1210; assay: Antileukemic activity against mouse L1210 cells allografted in BDF1 mouse assessed as mean survival time at 200 mg/kg, ip administered 24 hrs (Rvb 4.6 +/- 0.16 days); format: functional; details: route intraperitoneal
[30] = test system: L1210; assay: Antileukemic activity against mouse L1210 cells allografted in BDF1 mouse assessed as increase in life span at 400 mg/kg, ip administered 24 hrs relative to control
[31] = test system: L1210; assay: Antileukemic activity against mouse L1210 cells allografted in BDF1 mouse assessed as increase in life span at 200 mg/kg, ip administered 24 hrs relative to control; format: functional; details: route intraperitoneal
[32] = test system: L1210; assay: Antileukemic activity against mouse L1210 cells allografted in BDF1 mouse assessed as increase in life span at 530 mg/kg, ip administered 24 hrs relative to control; format: functional; details: route intraperitoneal
[33] = test system: L1210; assay: Antileukemic activity against mouse L1210 cells allografted in BDF1 mouse assessed as increase in life span at 70 mg/kg, ip administered 24 hrs relative to control; format: functional; details: route intraperitoneal
[34] = test system: L1210; assay: Antileukemic activity against mouse L1210 cells allografted in BDF1 mouse assessed as increase in life span at 330 mg/kg, ip administered 24 hrs relative to control; format: functional; details: route intraperitoneal
[35] = test system: L1210; assay: Antileukemic activity against mouse L1210 cells allografted in BDF1 mouse assessed as increase in life span at 130 mg/kg, ip administered 24 hrs relative to control; format: functional; details: route intraperitoneal
[36] = test system: L1210; assay: Antileukemic activity against mouse L1210 cells allografted in BDF1 mouse assessed as mean survival time at 530 mg/kg, ip administered 24 hrs (Rvb 4.6 +/- 0.16 days); format: functional; details: route intraperitoneal
[37] = test system: L1210; assay: Antileukemic activity against mouse L1210 cells allografted in BDF1 mouse assessed as mean survival time at 330 mg/kg, ip administered 24 hrs (Rvb 4.6 +/- 0.16 days); format: functional; details: route intraperitoneal
[38] = test system: L1210; assay: Antileukemic activity against mouse L1210 cells allografted in BDF1 mouse assessed as mean survival time at 70 mg/kg, ip administered 24 hrs (Rvb 4.6 +/- 0.16 days); format: functional; details: route intraperitoneal
[39] = test system: L1210; assay: Antileukemic activity against mouse L1210 cells allografted in BDF1 mouse assessed as mean survival time at 130 mg/kg, ip administered 24 hrs (Rvb 4.6 +/- 0.16 days); format: functional; details: route intraperitoneal

CN(CCCl)P1(=O)OCCC(OO)N1CCOS(C)(=O)=O (stereo not drawn)
MST [1]: 11.4 days
ILSmax [2]: 80 mg/kg
LD10 [3]: 284 mg/kg
EC50 [4]: 0.8 µg/mL (≈ 2.18 µM)
ILS at 2 mg/kg [5]: 44%
ILS at 100 mg/kg [6]: > 242%
MTD [7]: 100 mg/kg
Ratio [8]: 6.6
MST [9]: >15.8 days
Ratio [10]: 10
Ratio [11]: 40
MST [12]: >26.1 days
MTD [13]: 100 mg/kg
ILS at 10 mg/kg [14]: 147%
Ratio [15]: 4
MST [16]: 6.6 days
LD10 [17]: 66 mg/kg
Activity [18]: Active
ILS30 [19]: 2 mg/kg
LD10 [20]: 41 mg/kg
LD10 [21]: 238 mg/kg
minimal effective dose [22]: 15 mg/kg
minimal effective dose [23]: 10 mg/kg
minimal effective dose [24]: 50 mg/kg
LD10 [25]: 134 mg/kg
LD10 [26]: 120 mg/kg
MTD [27]: 200 mg/kg
ILS at 50 mg/kg [28]: > 468%

O=P1(N(CCCl)CCCl)NCCCO1 (stereo not drawn) [CYCLOPHOSPHAMIDE ANHYDROUS]
ILS at 100 mg/kg [6]: 169%
MTD [7]: 200 mg/kg
Ratio [8]: 1
MST [9]: 12.4 days
Ratio [10]: 2
MST [29]: >18.9 days
MST [12]: 7.8 days
MTD [13]: 200 mg/kg
Ratio [15]: 1
ILS at 400 mg/kg [30]: > 283%
minimal effective dose [22]: 200 mg/kg
minimal effective dose [23]: 100 mg/kg
minimal effective dose [24]: 200 mg/kg
ILS at 200 mg/kg [31]: > 310%
MTD [27]: 200 mg/kg
ILS at 50 mg/kg [28]: 68%

CN(CCBr)P1(=O)OCCC(OO)N1CCOS(C)(=O)=O (stereo not drawn)
ILSmax [2]: 60 mg/kg
EC50 [4]: 1 µg/mL (≈ 2.43 µM)
Ratio [11]: 20
ILS30 [19]: 3 mg/kg

CS(=O)(=O)OCCNP1(=O)OCCC(OO)N1CCOS(C)(=O)=O (stereo not drawn)
ILSmax [2]: 50 mg/kg
EC50 [4]: 3.9 µg/mL (≈ 9.46 µM)
Ratio [11]: 2
ILS30 [19]: 25 mg/kg

CCS(=O)(=O)OCCN(C)P1(=O)OCCC(OO)N1CCCl (stereo not drawn)
ILSmax [2]: 80 mg/kg
EC50 [4]: 0.8 µg/mL (≈ 2.1 µM)
Ratio [11]: 8
ILS30 [19]: 10 mg/kg

CS(=O)(=O)OCCN1C(OO)CCOP1(=O)NCCCl (stereo not drawn)
ILSmax [2]: 75 mg/kg
EC50 [4]: 0.8 µg/mL (≈ 2.27 µM)
Ratio [11]: 38
ILS30 [19]: 2 mg/kg

CN(CCBr)P1(=O)OCCC(OO)N1CCCl (stereo not drawn)
ILSmax [2]: 70 mg/kg
EC50 [4]: 0.3 µg/mL (≈ 0.853 µM)
Ratio [11]: 12
ILS30 [19]: 6 mg/kg

O=P1(NCCCl)OCCCN1CCCl (stereo not drawn) [IFOSFAMIDE]
ILS at 530 mg/kg [32]: > 251%
ILS at 70 mg/kg [33]: 90%
ILS at 330 mg/kg [34]: > 427%
ILS at 130 mg/kg [35]: 158%
MST [36]: >16.5 days
Ratio [8]: 1.1
MTD [13]: 320 mg/kg
MST [37]: >24.3 days
MST [38]: 8.8 days
Ratio [15]: 1
minimal effective dose [22]: 280 mg/kg
minimal effective dose [24]: 250 mg/kg
MTD [27]: 250 mg/kg
MST [39]: 11.9 days

Reference: ChEMBL document CHEMBL3244168, “Synthesis and antitumor activity of preactivated isophosphamide analogues bearing modified alkylating functionalities” (J Med Chem, 1978)
